Measured values published in ChEMBL document CHEMBL3603826, “6-Arylpyrazine-2-carboxamides: A New Core for Trypanosoma brucei Inhibitors” (J Med Chem, 2015).
pEC50: −log10 of the molar value. Values after ≈ are worked out from the molar mass of the structure shown.

Legend:
[1] = Selectivity index, ratio of cytotoxic IC50 for HEK293 cells to EC50 for anti-parasitic activity against Trypanosoma brucei brucei 427 bloodstream parasites; type: toxicity, cell-based; settings: human, read-out: Ratio IC50/EC50
[2] = test system: Trypanosoma brucei brucei; assay: Anti-parasitic activity against Trypanosoma brucei brucei 427 bloodstream parasites incubated for 48 hrs by alamar blue dye based assay; type: functional, organism-based; settings: Trypanosoma brucei, 427, 48 h
[3] = test system: Trypanosoma brucei rhodesiense; assay: Anti-parasitic activity against Trypanosoma brucei rhodesiense STIB 900 trypomastigotes incubated for 70 hrs by alamar blue dye based assay; type: functional, organism-based; settings: STIB 900, 70 h
Leishmania donovani = assay: Anti-parasitic activity against Leishmania donovani MHOM/ET/67/L82 axenic amastigotes incubated for 70 hrs by alamar blue dye based assay; type: functional, organism-based; settings: MHOM/ET/67/L82, 70 h
[4] = Toxicity against rat L6 cells incubated for 70 hrs by alamar blue dye based assay; type: cell-based
[5] = Selectivity index, ratio of cytotoxic IC50 for rat L6 cells to EC50 for anti-parasitic activity against Trypanosoma brucei rhodesiense STIB 900; type: toxicity, cell-based; settings: read-out: Ratio IC50/EC50
Plasmodium falciparum = assay: Anti-parasitic activity against chloroquine and pyrimethamine resistant Plasmodium falciparum K1 erythrocytic stages infected in human erythrocytes incubated for 48 hrs by [3H]-hypoxanthine incorporation assay; type: functional, organism-based
Trypanosoma cruzi = assay: Anti-parasitic activity against Trypanosoma cruzi Tulahuen C2C4 trypomastigotes infected rat L6 cells incubated for 96 hrs by CPRG/nonidet substrate based […]; type: functional, organism-based; settings: Tulahuen C2C4, L6, 96 h
[6] = Intrinsic clearance in human liver microsomes assessed per mg protein at pH 7.4 at 0.5 uM in presence of NADPH regenerating system by LC-MS method; type: ADME; settings: read-out: CLH
[7] = Partition coefficient, logD of the compound at pH 7.4 by HPLC method; type: physicochemical; settings: octanol/water
serum albumin = serum albumin (Homo sapiens, UniProt P02768); assay: Binding affinity to human serum albumin by chromatographic method; type: ADME; settings: read-out: PB (converted)
Chain of serum albumin (P02768 whole entry): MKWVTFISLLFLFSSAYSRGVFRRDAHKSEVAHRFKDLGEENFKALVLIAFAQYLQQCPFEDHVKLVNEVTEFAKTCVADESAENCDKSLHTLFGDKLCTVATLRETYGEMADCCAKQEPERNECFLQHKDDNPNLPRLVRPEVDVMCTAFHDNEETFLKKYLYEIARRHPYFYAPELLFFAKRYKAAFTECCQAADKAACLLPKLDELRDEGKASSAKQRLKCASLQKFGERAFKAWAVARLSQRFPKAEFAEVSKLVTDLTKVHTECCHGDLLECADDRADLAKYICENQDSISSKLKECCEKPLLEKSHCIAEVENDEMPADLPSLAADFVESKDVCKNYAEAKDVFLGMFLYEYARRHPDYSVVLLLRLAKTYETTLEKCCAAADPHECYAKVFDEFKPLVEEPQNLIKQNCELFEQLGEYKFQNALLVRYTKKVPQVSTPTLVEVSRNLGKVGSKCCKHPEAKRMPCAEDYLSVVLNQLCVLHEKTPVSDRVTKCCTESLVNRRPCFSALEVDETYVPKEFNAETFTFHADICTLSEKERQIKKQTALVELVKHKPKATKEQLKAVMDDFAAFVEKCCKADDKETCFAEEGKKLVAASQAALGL

[8] = Kinetic solubility in pH 6.5 phosphate buffer by nephelometry; type: physicochemical; settings: read-out: Kinetic_solubility
[9] = Kinetic solubility in pH 2.0 0.01M HCl buffer by nephelometry; type: physicochemical; settings: read-out: Kinetic_solubility
[10] = Stability assessed as degradation half life; type: physicochemical

| Compound | selectivity ratio [1] | pEC50 [2] | further results |
| --- | --- | --- | --- |
| Cc1cc(-c2cnc(N)c(C(=O)NC3CCCC3)n2)ccc1F | 3540 | 7.62 | – |
| CCC(C)NC(=O)c1nc(-c2cccc([N+](=O)[O-])c2)cnc1N (configuration not stated) | 185 | 6.35 | – |
| CCC(CC)NC(=O)c1nc(-c2ccccc2C#N)cnc1N | 488 | 6.77 | pEC50 [3]: 6.89; pEC50 (Leishmania donovani): < 5.00; IC50 at 70 h [4]: 10000 nM; selectivity ratio [5]: 80; pEC50 (Plasmodium falciparum): 5.32; pEC50 (Trypanosoma cruzi): 4.82 |
| CCC(C)NC(=O)c1nc(-c2ccccc2[N+](=O)[O-])cnc1N (configuration not stated) | 94 | 6.05 | – |
| Nc1ncc(-c2ccccc2)nc1C(=O)NCCCCO | > 11 | 5.14 | – |
| CCC(C)NC(=O)c1nc(-c2ccccc2C)cnc1N (configuration not stated) | > 71 | 5.92 | – |
| Nc1ncc(-c2ccccc2)nc1C(=O)N1CCCCC1 | > 18 | 5.34 | – |
| CCC(C)NC(=O)c1nc(-c2ccccc2)cnc1N (configuration not stated) | > 263 | 6.31 | pEC50 [3]: 6.01; pEC50 (Leishmania donovani): < 5.00; IC50 at 70 h [4]: 18000 nM; selectivity ratio [5]: 19; pEC50 (Plasmodium falciparum): 4.96; pEC50 (Trypanosoma cruzi): 4.72 |
| Nc1ncc(-c2ccccc2)nc1C(=O)Nc1ccccc1 | – | < 5.00 | – |
| CCC(C)NC(=O)c1nc(-c2ccccc2C#N)cnc1N (configuration not stated) | > 239 | 6.46 | microsomal CLint at 0.5 µM [6]: 122 µL/min/mg; pEC50 [3]: 6.19; pEC50 (Leishmania donovani): < 5.00; IC50 at 70 h [4]: 18000 nM; logD [7]: 3.6; fraction unbound (serum albumin): 0.05; solubility kinetic [8]: 1.6 µg/mL (≈ 5.42 µM); solubility kinetic [9]: 1.6 µg/mL (≈ 5.42 µM); pEC50 (Plasmodium falciparum): 5.44; pEC50 (Trypanosoma cruzi): 4.96; half-life [10]: 14 min |
| Nc1ncc(-c2ccccc2)nc1C(=O)NCc1ccccc1 | 32 | 5.59 | – |
| CCC(CC)NC(=O)c1nc(-c2cc(C)cc(C)c2)cnc1N | 173 | 6.32 | – |
| CCC(C)NC(=O)c1nc(-c2cccc(Br)c2)cnc1N (configuration not stated) | 147 | 6.24 | – |
| CC(C)NC(=O)c1nc(-c2ccccc2)cnc1N | > 33 | 5.59 | – |
| CCC(CC)NC(=O)c1nc(-c2ccccc2)cnc1N | > 263 | 6.49 | microsomal CLint at 0.5 µM [6]: 133 µL/min/mg; logD [7]: 4.3; fraction unbound (serum albumin): 0.05; solubility kinetic [8]: 3.1 µg/mL (≈ 10.9 µM); solubility kinetic [9]: 6.3 µg/mL (≈ 22.2 µM); half-life [10]: 13 min |
| Nc1ncc(-c2cccc(Cl)c2)nc1C(=O)NC1CCCC1 | 340 | 6.62 | – |
| CC(C)(C)NC(=O)c1nc(-c2ccccc2)cnc1N | > 14 | 5.52 | microsomal CLint at 0.5 µM [6]: 246 µL/min/mg; logD [7]: 4.3; fraction unbound (serum albumin): 0.015; solubility kinetic [8]: < 1.6 µg/mL; solubility kinetic [9]: < 1.6 µg/mL; half-life [10]: 7 min |
| CCC(CC)NC(=O)c1nc(-c2cc(C)cc(Cl)c2)cnc1N | 50 | 6.11 | – |
| CCC(C)NC(=O)c1nc(-c2ccc(N)cc2)cnc1N (configuration not stated) | > 28.4 | 5.54 | – |
| CCC(C)NC(=O)c1nc(-c2ccccc2F)cnc1N (configuration not stated) | 111 | 6.12 | – |
| CCC(C)NC(=O)c1nc(-c2cccc(C#N)c2)cnc1N (configuration not stated) | > 30.5 | 5.57 | – |
| CCC(C)NC(=O)c1nc(-c2ccc(Cl)cc2)cnc1N (configuration not stated) | 122 | 6.17 | microsomal CLint at 0.5 µM [6]: 48 µL/min/mg; logD [7]: 4.5; fraction unbound (serum albumin): 0.03; solubility kinetic [8]: 1.6 µg/mL (≈ 5.25 µM); solubility kinetic [9]: 3.1 µg/mL (≈ 10.2 µM); half-life [10]: 36 min |
| CCC(C)NC(=O)c1nc(-c2ccccc2OC)cnc1N (configuration not stated) | > 15.4 | 5.27 | – |
| CCC(C)NC(=O)c1nc(-c2cccc(C)c2)cnc1N (configuration not stated) | > 495 | 6.77 | pEC50 [3]: 6.89; pEC50 (Leishmania donovani): < 5.00; IC50 at 70 h [4]: 43000 nM; selectivity ratio [5]: 340; pEC50 (Plasmodium falciparum): 4.72; pEC50 (Trypanosoma cruzi): 4.60 |
| Nc1ncc(-c2ccccc2)nc1C(=O)NCCN1CCCC1 | – | < 5.00 | – |
| Cc1cc(Cl)cc(-c2cnc(N)c(C(=O)NC3CCCC3)n2)c1 | 170 | 6.30 | – |
| CCC(CC)NC(=O)c1nc(-c2cccc(Cl)c2)cnc1N | 110 | 6.44 | – |
| CCC(C)NC(=O)c1nc(-c2ccc(Br)cc2)cnc1N (configuration not stated) | 38 | 5.66 | – |

| Compound | selectivity ratio [1] | pEC50 [2] | further results |
| --- | --- | --- | --- |
| Nc1ncc(-c2ccc(F)c(Cl)c2)nc1C(=O)NC1CCCC1 | 190 | 6.96 | – |
| CCC(C)NC(=O)c1nc(-c2ccc(C)cc2)cnc1N (configuration not stated) | 22 | 5.43 | – |
| Nc1ncc(-c2ccccc2)nc1C(=O)N1CCCC1 | > 14 | 5.21 | – |
| Nc1ncc(-c2ccccc2)nc1C(=O)NCCO | – | < 5.00 | – |
| CCC(C)NC(=O)c1nc(-c2ccc(C#N)cc2)cnc1N (configuration not stated) | > 30.4 | 5.57 | – |
| CCC(C)NC(=O)c1nc(-c2ccccc2Cl)cnc1N (configuration not stated) | 76 | 5.96 | – |
| CCC(C)NC(=O)c1nc(-c2ccc(OC)cc2)cnc1N (configuration not stated) | > 63.9 | 5.89 | – |
| CCC(C)NC(=O)c1nc(-c2ccc([N+](=O)[O-])cc2)cnc1N (configuration not stated) | > 18.5 | 5.35 | – |
| CCC(C)NC(=O)c1nc(-c2ccccc2N)cnc1N (configuration not stated) | – | < 5.00 | – |
| CCC(C)NC(=O)c1nc(-c2cccc(OC)c2)cnc1N (configuration not stated) | > 201 | 6.39 | – |
| Nc1ncc(-c2ccccc2)nc1C(=O)NCCN1CCOCC1 | – | < 5.00 | – |
| CNC(=O)c1nc(-c2ccccc2)cnc1N | – | < 5.00 | – |
| Nc1ncc(-c2cccc(C(F)(F)F)c2)nc1C(=O)NC1CCCC1 | 560 | 6.82 | – |
| CCC(CC)NC(=O)c1nc(-c2cccc(C(F)(F)F)c2)cnc1N | 80 | 6.59 | – |
| CCC(C)NC(=O)c1nc(-c2ccccc2Br)cnc1N (configuration not stated) | – | < 5.00 | – |
| CCC(C)NC(=O)c1nc(-c2cccc(N)c2)cnc1N (configuration not stated) | > 77.8 | 5.96 | – |
| CCC(C)NC(=O)c1nc(-c2ccccc2C(C)=O)cnc1N (configuration not stated) | 7.9 | 5.00 | – |
| CCCCCNC(=O)c1nc(-c2ccccc2)cnc1N | 50 | 5.77 | – |
| Nc1ncc(-c2ccccc2)nc1C(=O)N1CCOCC1 | – | < 5.00 | – |
| CCC(C)NC(=O)c1nc(-c2cccc(F)c2)cnc1N (configuration not stated) | 102 | 6.09 | – |
| N#Cc1cc(F)ccc1-c1cnc(N)c(C(=O)NC2CCCC2)n1 | 1470 | 7.24 | – |
| Nc1ncc(-c2ccc(F)cc2)nc1C(=O)NC1CCCC1 | 590 | 7.15 | – |
| CCCC(C)NC(=O)c1nc(-c2ccccc2)cnc1N (configuration not stated) | > 156 | 6.28 | – |
| CCC(CC)NC(=O)c1nc(-c2ccc(F)c(Cl)c2)cnc1N | 190 | 6.66 | – |
| CCC(C)NC(=O)c1nc(-c2ccc(C(C)=O)cc2)cnc1N (configuration not stated) | 8.8 | 5.33 | – |
| CCC(C)NC(=O)c1nc(-c2cccc(C(C)=O)c2)cnc1N (configuration not stated) | – | < 5.00 | – |
| Nc1ncc(-c2ccccc2)nc1C(=O)NCCc1ccccc1 | – | < 5.00 | – |
